pIC50: −log10 of the molar value. Where only a bound is given, the exact number is not on record here.

Consider one compound from US20090285774A1, “Hepatitis C Virus Inhibitors” (Bristol-Myers Squibb Company, priority 2008, published 2009).

Common to all, as to assay type: biochemical
For assay [1], the target named is T1, HCV NS3/4A protease complex, H77 strain (1a genotype) (Hepatitis C virus genotype 1a, UniProt P27958, C1454S/C1711G).
T1 construct: DNA encoding the recombinant HCV NS3/4A protease complex (amino acids 1027 to 1711) for these strains; inferred from pET21b vector and Ni-NTA purification; made in house; host or cells: Escherichia coli BL21 (DE3), pET21b
T1 sequence (P27958 1027-1711 C1454S/C1711G, one chain of several): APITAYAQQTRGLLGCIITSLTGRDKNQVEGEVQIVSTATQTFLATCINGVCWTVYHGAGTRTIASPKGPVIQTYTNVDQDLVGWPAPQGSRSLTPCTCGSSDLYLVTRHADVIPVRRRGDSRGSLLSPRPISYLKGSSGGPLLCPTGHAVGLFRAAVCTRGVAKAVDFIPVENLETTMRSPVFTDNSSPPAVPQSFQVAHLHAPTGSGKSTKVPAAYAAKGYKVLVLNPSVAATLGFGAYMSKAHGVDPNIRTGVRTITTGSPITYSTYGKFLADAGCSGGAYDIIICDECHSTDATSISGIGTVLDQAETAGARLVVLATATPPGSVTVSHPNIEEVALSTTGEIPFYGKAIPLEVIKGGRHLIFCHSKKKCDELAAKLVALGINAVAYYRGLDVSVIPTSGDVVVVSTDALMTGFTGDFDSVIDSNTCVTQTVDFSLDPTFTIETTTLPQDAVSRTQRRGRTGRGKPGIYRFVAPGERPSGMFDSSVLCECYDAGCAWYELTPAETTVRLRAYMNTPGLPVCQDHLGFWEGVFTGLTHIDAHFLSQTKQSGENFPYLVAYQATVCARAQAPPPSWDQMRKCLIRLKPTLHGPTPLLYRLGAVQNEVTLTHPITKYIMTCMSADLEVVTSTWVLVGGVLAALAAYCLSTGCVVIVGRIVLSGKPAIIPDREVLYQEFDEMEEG
Briefly: FRET peptide assay to monitor HCV NS3/4A proteolytic activity (H77 strain). The text has this: HCV NS3 protease complexes, derived from the BMS strain, H77 strain or J4L6S strain, were generated, as described below. These purified recombinant proteins were generated for use in a homogeneous assay (see below) to provide an indication of how effective compounds of the present disclosure would be in inhibiting HCV NS3 proteolytic activity.
Serum from an HCV-infected patient was obtained from Dr. T. Wright, San Francisco Hospital. An engineered full-length cDNA (compliment deoxyribonucleic acid) template of the HCV genome (BMS strain) was constructed from DNA fragments obtained by reverse transcription-PCR (RT-PCR) of serum RNA (ribonucleic acid) and using primers selected on the basis of homology between other genotype 1a strains. From the determination of the entire genome sequence, a genotype 1a was assigned to the HCV isolate according to the classification of Simmonds et al. (See P Simmonds, K A Rose, S Graham, S W Chan, F McOmish, B C Dow, E A Follett, P L Yap and H Marsdeni, J. Clin. Microbiol., 31(6):1493-1503 (1993)). […]

The target in assay [2] is porcine pancreatic elastase (PPE) (Sus scrofa, UniProt P00772). Briefly: Specificity assay, porcine pancreatic elastase. The settings on record: read-out: PPE activity in the specificity assays (IC50). As to the method: (§1) The specificities of compounds of the present disclosure were determined against a variety of serine proteases: human neutrophil elastase (HNE), porcine pancreatic elastase (PPE) and human pancreatic chymotrypsin and one cysteine protease: human liver cathepsin B. In all cases a 96-well plate format protocol using a fluorometric Amino-Methyl-Coumarin (AMC) substrate specific for each enzyme was used as described previously (PCT Patent Application No. WO 00/09543) with some modifications to the serine protease assays. All enzymes were purchased from Sigma, EMDbiosciences while the substrates were from Bachem, Sigma and EMDbiosciences.
Chain of porcine pancreatic elastase (PPE) (P00772 27-266): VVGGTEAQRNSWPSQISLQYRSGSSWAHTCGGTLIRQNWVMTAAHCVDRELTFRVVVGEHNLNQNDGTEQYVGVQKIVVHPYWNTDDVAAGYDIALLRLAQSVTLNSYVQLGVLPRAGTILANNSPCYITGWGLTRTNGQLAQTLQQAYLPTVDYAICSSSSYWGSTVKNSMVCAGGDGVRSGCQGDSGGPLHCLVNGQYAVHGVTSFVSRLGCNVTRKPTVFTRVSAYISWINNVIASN
(§2) Compound concentrations varied from 100 to 0.4 μM depending on their potency. The enzyme assays were each initiated by addition of substrate to enzyme-inhibitor pre-incubated for 10 min at room temperature and hydrolysis to 15% conversion as measured on cytofluor. […]
(§3) The percentage of inhibition was calculated using the formula: […]

For the next assay, the target named is T2, human liver cathepsin B (Homo sapiens, UniProt P07858).
T2 construct: host or cells: human liver (from the name)
The experiment in a line: Specificity assay, cathepsin B. The settings on record: read-out: Cathepsin B activity in the specificity assays (IC50). As to the method:
as §1, §2, §3

For the compound `C=C[C@@H]1C[C@]1(NC(=O)[C@@H]1C[C@@H](OC(=O)N2Cc3cccc(F)c3C2)CN1C(=O)C(Nc1cc(C)cc(C)n1)C(C)C)C(=O)NS(=O)(=O)C1CC1` (single isomer, unassigned) [Compound 2A], the pIC50 (as a rule, −log10 of the IC50, conventionally taken in molar units) in assay [1] was 8.85; in assay [2], less than 4.00; at human liver cathepsin B, less than 4.00.
